Where a SMILES comes first, the peptide text is derived from it. Bridges are numbered along the chain shown (N, C = ends). [ ]: non-standard residue; d: D form. Orn = NCCC[C@H](N)C(=O)O; Mpa = O=C(O)CCS
Columns and labels:
IVF/ICSI patients [1] = experiment: BASIC randomized, placebo-controlled, double-blind clinical trial: barusiban subcutaneously on the day of transfer, implantation in IVF/ICSI patients; assay type: in vivo, human
Text: Example 1: A randomized, placebo-controlled, double-blind, parallel groups, multinational, multicenter trial assessing the effect of barusiban administered subcutaneously on the day of transfer on implantation and pregnancy rates in IVF/ICSI patients
BASIC was a randomized, double-blind, placebo-controlled, parallel groups, multinational, multicenter trial. It was designed to evaluate the effects of barusiban, administered either on the day of cleavage-stage embryo transfer or on the day of blastocyst transfer, on ongoing implantation rate in IVF/ICSI patients. The patients underwent controlled ovarian stimulation in the long GnRH agonist or GnRH antagonist protocol, received hCG for triggering of final follicular maturation, had undergone oocyte retrieval, and had daily luteal phase support by supplementation with vaginal progesterone starting on day 1 post-retrieval, and transfer on day 3 or 5 post-retrieval. Patients were randomized in a 1:1 ratio to either the barusiban group or the placebo group, with stratification according to the day of transfer (day 3 post-retrieval or day 5 post-retrieval) and the number of embryos/blastocysts to be transferred (1 or 2). In total, 255 IVF/ICSI patients were randomized in the trial and contributing with 440 embryos/blastocysts.
Investigational medicinal product, i.e., barusiban or placebo according to randomization, was administered as subcutaneous injections at two time points: 1st administration of 40 mg barusiban or placebo was […] prior to transfer and the 2nd administration of 10 mg barusiban or placebo was […] after the 1st administration.
Transfer was performed on day 3 (cleavage-stage embryos) or day 5 (blastocysts) after oocyte retrieval. On day 3, only embryos of good quality defined as ≥6 blastomeres and ≤20% fragmentation were transferred. On day 5, blastocysts with expansion and hatching status 3, 4, 5 or 6 were transferred. The actual number of transferred embryos/blastocysts for each individual patient depended on the availability of embryos; blastocysts of the required morphological quality, local regulations and clinical practice for the patient's age, but the maximum number was 2.
Key aspects related to the transfer procedure had been standardized. A speculum was inserted into the vagina and cleaning of the vagina and cervix was done according to local practices but with minimal manipulation and disturbance. Soft or ultrasoft catheters were used. The outer sheath of the catheter was inserted just protruding to the internal os (i.e. keeping the outer sheath in the cervical canal). The embryo(s)/blastocyst(s) were loaded into the inner sheath which was then inserted through the outer sheath. Using abdominal ultrasound guidance, the embryo(s)/blastocyst(s) were placed 1.5-2.0 cm from the fundus. The time from loading the inner catheter to placing the embryo(s)/blastocyst(s) should not have exceeded 1 min. After placement, the inner and outer catheters were withdrawn and checked for retained embryo(s)/blastocyst(s), mucus and blood. After confirmation that there were no embryo(s)/blastocyst(s) left in the catheters, the speculum was subsequently removed; this occurred approximately within 2 min after placement of the embryo(s)/blastocyst(s). Any difficulties/eventualities occurring during the transfer procedure were recorded.
Patients received vaginal progesterone tablets 100 mg twice daily from the day after oocyte retrieval and until the day of the clinical pregnancy visit. On the day of transfer, patients should insert the progesterone tablets at least 3 hours before transfer and at least 3 hours after transfer. Ongoing implantation rate (primary endpoint) was defined as the number of intrauterine viable fetuses 10-11 weeks after transfer divided by number of embryos/blastocysts transferred. […]

IVF/ICSI patients [2] = details: cited from earlier work

Row | Molecule | effect on improving ongoing implantation rate (IVF/ICSI patients [1]; blastocyst transfer on day 5 (receptive stage), p=0.0270) | odds ratio for ongoing implantation rate (IVF/ICSI patients [1]; blastocyst transfer on day 5 post-retrieval, vs placebo, CI 1.1-4.7, p=0.0270) | relative Δ of ongoing implantation rate vs placebo (IVF/ICSI patients [1]; blastocyst transfers (day 5), adjusted means 45% vs 27%) | adjusted mean of ongoing implantation rate (IVF/ICSI patients [1]; blastocyst transfers (day 5 post-retrieval), placebo 27%) | effect on ongoing implantation rate (IVF/ICSI patients [1]; cleavage-stage embryo transfer on day 3 (pre-receptive stage)) | odds ratio for ongoing implantation rate (IVF/ICSI patients [1]; cleavage-stage embryo transfer on day 3 post-retrieval, vs placebo, CI 0.3-1.2, p=0.1509) | odds ratio for ongoing implantation rate (IVF/ICSI patients [1]; overall (day 3+day 5), barusiban vs placebo, logistic regression, PP, 95% CI 0.7-1.8, p=0.6960) | observed overall ongoing implantation rate (IVF/ICSI patients [1]; overall (day 3+day 5 transfers), per-protocol population, 40 mg + 10 mg s.c. on day of transfer) | ongoing implantation rate (IVF/ICSI patients [1]; overall, intention-to-treat (ITT) population) | increase in implantation or live birth rates compared to placebo (IVF/ICSI patients [2]; administration on day 2 or day 3 post-retrieval (early luteal phase)) | live birth rate (IVF/ICSI patients [2]; cleavage-stage embryo transfer on day 2 or day 3 post-retrieval, N=800, placebo 38.0%)
1 | barusiban | significant | 2.3 | 67% | 45% | No effect | 0.3 | 1.1 | 27.1% | 26.2% | – | –
2 | CCOc1ccc(C[C@H]2NC(=O)CCSSC[C@@H](C(=O)N3CCC[C@H]3C(=O)N[C@@H](CCCN)C(=O)NCC(N)=O)NC(=O)[C@H](CC(N)=O)NC(=O)[C@H]([C@@H](C)O)NC(=O)[C@H]([C@@H](C)CC)NC2=O)cc1 [atosiban, 1-(3-mercaptopropanoic acid)-2-(O-ethyl-D-tyrosine)-4-L-threonine-8-L-ornithine-oxytocin] ([Mpa][dY](Et)ITNCP[Orn]G-NH2; disulfide 1-6) | – | – | – | – | – | – | – | – | – | no significant increase | 39.8%
